Reference: patent US7932394B2, “Aryloxy-substituted benzimidazole derivatives” (MSD K.K., priority 2004, dated 2011)

Biological target: T1, recombinant human liver GK (Homo sapiens, UniProt P35557)
T1 construct: made in house; host or cells: E. coli
T1 sequence (P35557 1-466 isoform P35557-2): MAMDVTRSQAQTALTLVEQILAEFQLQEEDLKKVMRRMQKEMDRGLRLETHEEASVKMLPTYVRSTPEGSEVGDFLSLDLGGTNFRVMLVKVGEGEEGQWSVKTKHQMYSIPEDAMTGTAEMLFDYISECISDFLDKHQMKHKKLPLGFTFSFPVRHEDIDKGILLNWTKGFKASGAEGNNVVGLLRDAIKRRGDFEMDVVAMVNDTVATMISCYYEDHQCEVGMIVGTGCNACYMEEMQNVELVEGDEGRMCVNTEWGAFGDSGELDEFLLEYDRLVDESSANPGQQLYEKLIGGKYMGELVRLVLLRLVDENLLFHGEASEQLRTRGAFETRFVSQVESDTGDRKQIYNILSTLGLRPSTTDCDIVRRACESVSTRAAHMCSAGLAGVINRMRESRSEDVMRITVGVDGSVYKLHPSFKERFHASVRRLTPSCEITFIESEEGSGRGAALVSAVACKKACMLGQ
Test: GK-activating potency: glucokinase activity via Thio-NADH level (G6PDH reporter enzyme)
Type: biochemical
Conditions: FLAG-GK, 30° C., final glucose concentration 2.5 mM; for Emax: OD level of DMSO control set as 100%
Description: The excellent glucokinase-activating effect of the compounds of formula (I) may be determined by a method described in references (for example, Diabetes, Vol. 45, pp. 1671-1677, 1996), or in accordance with it.
The glucokinase activity may be determined not by directly measuring glucose-6-phosphate but by measuring the level of Thio-NADH, which is produced when a reporter enzyme, glucose-6-phosphate dehydrogenase produces phosphogluconolactone from glucose-6-phosphate, and based on the level, the degree of glucokinase activity of the compound tested may be determined.
In this assay, used was a recombinant human liver GK, which was expressed by E. coli as a FLAG fusion protein therein and was purified by ANTIFLAG M2 AFFINITY GEL (Sigma).
Using a flat-bottomed 96-well plate, the assay was carried out at 30° C. 69 μl of an assay buffer (25 mM Hepes Buffer/pH=7.2, 2 mM MgCl2, 1 mM ATP, 0.5 mM TNAD, 1 mM dithiothreitol) was put into the plate, and 1 μl of a DMSO solution of the compound or DMSO alone as a control was added thereto. Next, 20 μl of an enzyme mixture (FLAG-GK, 20 U/ml G6PDH) cooled in ice was added to it, and 10 μl of a substrate, 25 mM glucose was added to it, and the reaction was initiated (final glucose concentration=2.5 mM).
After the start of the reaction, the increase in the absorbance at 405 nm was measured for 12 minutes at intervals of 30 seconds, and the increase for the first 5 minutes was used for evaluating the compound tested. FLAG-GK was added so that the absorbance increase after 5 minutes in the presence of 1% DMSO could be from 0.04 to 0.06.
The OD level of the DMSO control was set as 100%; and the OD level of the test compound at different concentrations was determined. From the OD level at each concentration, Emax (%) and EC50 (μM) were computed and used as the index of the GK-activating potency of the compound.

EC50 | Emax | Structure (SMILES)
120 nM | – | CS(=O)(=O)c1ccc(Oc2cc3nc(-c4ccccn4)[nH]c3cc2CN2C(=O)CCC2=O)cc1 [Example 1, 1-{[5-[4-(Methylsulfonyl)phenoxy]-2-(2-pyridinyl)-1H-benzimidazol-6-yl]methyl}pyrrolidine-2,5-dione]
490 nM | 982% | CCS(=O)(=O)c1ccc(Oc2cc3nc(-c4ccccn4)[nH]c3cc2CNS(C)(=O)=O)cc1 [Example 31, N-{[5-[4-(ethylsulfonyl)phenoxy]-2-(2-pyridinyl)-1H-benzimidazol-6-yl]methyl}methanesulfonamide]
360 nM | 805% | CCS(=O)(=O)c1ccc(Oc2cc3nc(-c4ccccn4)[nH]c3cc2Cc2ccc(F)cc2)cc1 [Example 65, 5-[4-(Ethylsulfonyl)phenoxy]-6-(4-fluorobenzyl)-2-(2-pyridinyl)-1H-benzimidazole]
